Reference: US8431579B2, “Capped pyrazinoylguanidine sodium channel blockers” (Parion Sciences, Inc., priority 2003, dated 2013)

Biological target: T1, airway epithelial sodium currents (epithelial Na+ channel, ENaC) (Canis lupus familiaris, UniProt A0A8I3MKE6+A0A8I3Q679+Q95165)
T1 sequence (A0A8I3Q679 1-649): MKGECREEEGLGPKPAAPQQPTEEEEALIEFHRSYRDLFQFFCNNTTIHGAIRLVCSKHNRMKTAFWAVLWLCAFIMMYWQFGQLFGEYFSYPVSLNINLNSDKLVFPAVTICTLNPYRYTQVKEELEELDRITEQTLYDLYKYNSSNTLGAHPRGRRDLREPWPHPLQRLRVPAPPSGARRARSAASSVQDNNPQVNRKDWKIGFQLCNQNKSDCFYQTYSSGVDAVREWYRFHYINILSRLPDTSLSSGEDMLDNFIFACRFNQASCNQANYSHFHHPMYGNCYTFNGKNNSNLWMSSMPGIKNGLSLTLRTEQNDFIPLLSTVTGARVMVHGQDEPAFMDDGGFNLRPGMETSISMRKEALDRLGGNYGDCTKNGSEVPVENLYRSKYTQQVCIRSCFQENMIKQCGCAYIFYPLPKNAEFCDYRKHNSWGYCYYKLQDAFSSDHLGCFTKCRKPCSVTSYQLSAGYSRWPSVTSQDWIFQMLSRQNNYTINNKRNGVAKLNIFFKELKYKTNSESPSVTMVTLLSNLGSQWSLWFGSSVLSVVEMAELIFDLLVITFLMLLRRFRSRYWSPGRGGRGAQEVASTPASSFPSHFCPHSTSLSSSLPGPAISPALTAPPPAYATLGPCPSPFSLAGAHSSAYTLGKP
T1 sequence (Q95165 1-641): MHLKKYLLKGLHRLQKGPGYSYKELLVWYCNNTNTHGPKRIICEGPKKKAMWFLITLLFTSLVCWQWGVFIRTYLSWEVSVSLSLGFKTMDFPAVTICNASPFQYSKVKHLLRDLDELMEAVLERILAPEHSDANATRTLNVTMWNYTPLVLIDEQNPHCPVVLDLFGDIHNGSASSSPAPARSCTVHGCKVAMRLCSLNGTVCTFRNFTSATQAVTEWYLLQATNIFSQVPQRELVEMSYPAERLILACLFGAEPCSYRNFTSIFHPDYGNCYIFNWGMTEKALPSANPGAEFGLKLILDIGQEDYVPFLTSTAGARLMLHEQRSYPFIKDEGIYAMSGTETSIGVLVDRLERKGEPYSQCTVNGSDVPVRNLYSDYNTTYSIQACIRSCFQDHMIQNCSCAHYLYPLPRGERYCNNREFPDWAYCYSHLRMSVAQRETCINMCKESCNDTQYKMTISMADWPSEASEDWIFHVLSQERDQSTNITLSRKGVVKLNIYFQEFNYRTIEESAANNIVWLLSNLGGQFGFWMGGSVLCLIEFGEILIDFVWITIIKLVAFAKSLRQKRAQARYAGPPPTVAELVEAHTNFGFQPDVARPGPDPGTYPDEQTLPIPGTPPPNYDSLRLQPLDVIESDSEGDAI
T1 sequence (A0A8I3MKE6 1-646): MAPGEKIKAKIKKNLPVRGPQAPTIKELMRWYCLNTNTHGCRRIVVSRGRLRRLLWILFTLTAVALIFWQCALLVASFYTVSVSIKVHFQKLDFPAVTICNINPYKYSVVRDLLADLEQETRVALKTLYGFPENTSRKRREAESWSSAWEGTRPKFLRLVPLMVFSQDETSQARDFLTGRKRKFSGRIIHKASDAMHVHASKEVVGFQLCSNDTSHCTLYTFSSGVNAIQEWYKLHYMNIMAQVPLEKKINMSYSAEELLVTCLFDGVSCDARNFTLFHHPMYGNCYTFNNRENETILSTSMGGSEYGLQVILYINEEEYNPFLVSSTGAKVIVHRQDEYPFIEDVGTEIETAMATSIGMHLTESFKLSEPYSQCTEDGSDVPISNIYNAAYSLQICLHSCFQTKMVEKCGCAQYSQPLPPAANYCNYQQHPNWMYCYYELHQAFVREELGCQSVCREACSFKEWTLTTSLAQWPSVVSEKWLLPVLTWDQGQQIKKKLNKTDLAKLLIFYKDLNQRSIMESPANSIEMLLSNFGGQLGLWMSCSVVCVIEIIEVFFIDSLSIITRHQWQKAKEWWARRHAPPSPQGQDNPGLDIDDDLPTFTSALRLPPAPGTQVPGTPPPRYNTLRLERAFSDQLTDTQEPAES
Experiment: In vitro measure of sodium channel blocking activity (short circuit current, airway epithelial monolayers in Ussing chambers)
Assay type: cell-based, human, dog, sheep or rodent
Details: lumenal drug inhibition of ISC in airway epithelial monolayers, value ± spread, n in same cell
Method: In Vitro Measure of Sodium Channel Blocking Activity and Reversibility
One assay used to assess mechanism of action and/or potency of the compounds of the present invention involves the determination of lumenal drug inhibition of airway epithelial sodium currents measured under short circuit current (ISC) using airway epithelial monolayers mounted in Ussing chambers. Cells obtained from freshly excised human, dog, sheep or rodent airways are seeded onto porous 0.4 micron Snapwell™ Inserts (CoStar), cultured at air-liquid interface (ALI) conditions in hormonally defined media, and assayed for sodium transport activity (ISC) while bathed in Krebs Bicarbonate Ringer (KBR) in Using chambers. All test drug additions are to the lumenal bath with half-log dose addition protocols (from 1×10^−11 M to 3×10^−5M), and the cumulative change in ISC (inhibition) recorded. All drugs are prepared in dimethyl sulfoxide as stock solutions at a concentration of 1×10^−2 M and stored at −20° C. Eight preparations are typically run in parallel; two preparations per run incorporate amiloride and/or benzamil as positive controls. After the maximal concentration (5×10^−5 M) is administered, the lumenal bath is exchanged three times with fresh drug-free KBR solution, and the resultant ISC measured after each wash for approximately 5 minutes in duration. Reversibility is defined as the percent return to the baseline value for sodium current after the third wash. All data from the voltage clamps are collected via a computer interface and analyzed off-line.
Dose-effect relationships for all compounds are considered and analyzed by the Prism 3.0 program. IC50 values, maximal effective concentrations, and reversibility are calculated and compared to amiloride and benzamil as positive controls.

SMILES | EC50 [nM]
N=C(NCCCCc1ccc(OCC(O)COCC(O)CO)cc1)NC(=O)c1nc(Cl)c(N)nc1N (centres unmarked) [compound 15143] | 7 ± 3
N#CCOc1ccc(CCCCNC(=N)NC(=O)c2nc(Cl)c(N)nc2N)cc1 [compound 16208] | 11 ± 4
CN(C)C(=O)COc1ccc(CCCCNC(=N)NC(=O)c2nc(Cl)c(N)nc2N)cc1 [compound 16313] | 15 ± 4
N=C(NCCCCc1ccc(OCC(=O)NCC(N)=O)cc1)NC(=O)c1nc(Cl)c(N)nc1N [compound 16314] | 13 ± 2
N=C(NCCCCc1ccc(OCC(=O)Nc2ncc[nH]2)cc1)NC(=O)c1nc(Cl)c(N)nc1N [compound 16437] | 13 ± 7
N=C(NCCCCc1ccc(OCC(=O)Nc2ccccc2)cc1)NC(=O)c1nc(Cl)c(N)nc1N [compound 17482] | 16 ± 4
CN(C)C(=S)Oc1ccc(CCCCNC(=N)NC(=O)c2nc(Cl)c(N)nc2N)cc1 [compound 17846] | 11 ± 6
N=C(NCCCCc1ccc(OCCCc2nnn[nH]2)cc1)NC(=O)c1nc(Cl)c(N)nc1N [compound 17926] | 25 ± 9
CC(C)[C@H](NS(=O)(=O)c1ccc(CCCCNC(=N)NC(=O)c2nc(Cl)c(N)nc2N)cc1)C(N)=O [compound 19008] | 9 ± 1
N=C(NCCCCc1ccc(OCCCc2ncc[nH]2)cc1)NC(=O)c1nc(Cl)c(N)nc1N [compound 23022] | 12 ± 3

Test system: not given
Experiment: not given
Details: not given

SMILES | melting point [°C]
N=C(NCCCCc1ccc(OCC(=O)N(CCO)CCO)cc1)NC(=O)c1nc(Cl)c(N)nc1N | 114 to 121.16
